Measurements reported in patent publication US20240269128A1, “COMPOUNDS FOR TREATING OR PREVENTING ALZHEIMER'S DISEASE” (THE UNITED STATES OF AMERICA, as represented by the …, priority 2021, published 2024).

How the values were obtained:
[1] = molecular target: STAT3 (Mus musculus, UniProt P42227); test: Western blot of hippocampal STAT3 and p-STAT3 after STET; set-up: hippocampal homogenate samples across four groups; from tissue; host or cells: acute hippocampal slices from WT and APP/PS1 (APPSwe/PS1dE9) mice
STAT3 (Mus musculus, UniProt P42227), sequence (P42227 whole entry): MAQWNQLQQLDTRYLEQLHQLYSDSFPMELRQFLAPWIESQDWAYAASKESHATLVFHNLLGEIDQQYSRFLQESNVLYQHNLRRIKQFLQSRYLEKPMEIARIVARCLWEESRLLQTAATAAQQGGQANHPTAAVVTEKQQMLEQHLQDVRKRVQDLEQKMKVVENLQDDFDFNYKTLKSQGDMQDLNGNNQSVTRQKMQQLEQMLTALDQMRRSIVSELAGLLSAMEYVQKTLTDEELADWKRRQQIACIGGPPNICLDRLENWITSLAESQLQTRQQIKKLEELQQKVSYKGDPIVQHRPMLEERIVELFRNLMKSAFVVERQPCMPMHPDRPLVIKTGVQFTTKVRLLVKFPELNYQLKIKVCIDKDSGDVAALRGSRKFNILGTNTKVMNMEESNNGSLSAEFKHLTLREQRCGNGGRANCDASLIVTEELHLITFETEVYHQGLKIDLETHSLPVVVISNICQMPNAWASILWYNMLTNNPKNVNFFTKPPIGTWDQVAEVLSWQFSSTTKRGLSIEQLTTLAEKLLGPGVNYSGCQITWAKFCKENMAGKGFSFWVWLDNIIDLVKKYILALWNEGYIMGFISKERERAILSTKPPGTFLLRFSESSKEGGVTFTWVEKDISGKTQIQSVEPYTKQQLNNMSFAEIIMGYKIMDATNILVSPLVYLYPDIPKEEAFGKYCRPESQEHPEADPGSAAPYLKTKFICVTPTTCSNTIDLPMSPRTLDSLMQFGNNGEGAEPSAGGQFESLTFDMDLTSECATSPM
Description: To test if the rescue of impaired late-LTP by HCQ may be through inactivation of STAT3, levels of total STAT3 and phosphorylated STAT3 (p-STAT3; Tyr705) were examined to determine whether they were reduced by HCQ treatment. Specifically, differences in STAT3 and pSTAT3 levels were tested in hippocampal homogenate samples across four groups: WT, APP/PS1, WT+50 μM HCQ, and APP/PS1+50 μM HCQ mice (5-months old). All hippocampal slices were incubated in the interphase chamber and HCQ was applied 30 minutes before and after STET. In each group, hippocampal slices were collected one hour after STET.

[2] = molecular target: T1, STAT3 (Homo sapiens, UniProt P40763); test: Western blot of total and phosphorylated STAT3 in human cell lines; assay type: cell-based; conditions: 50 μM; for p-STAT3 (Tyr705 and Ser727) / total STAT3: 48 hours
T1 construct: endogenous in cells; host or cells: HMC3 (ATCC CRL-3304), 1321N1 (Sigma-Aldrich), SK-N-BE(2)-M17 (ATCC CRL-2267)
T1 sequence (P40763 whole entry): as the sequence (P42227 whole entry) above, with D760E counted along it
Description: Cell and neuron cultures: Immortalized human microglia HMC3 cells (ATCC CRL-3304) and astrocytoma 1321N1 cells (Sigma-Aldrich; derived from human brain astrocytoma; Macintyre et al., 1972) were cultured in Eagle's minimum essential medium (EMEM) supplemented with 10% fetal bovine serum (FBS, Gibco) and 1% antibiotics and antimycotics (Gibco). Neuroblastoma SK-N-BE(2)-M17 (M17) (ATCC CRL-2267) cells were cultured in a 1:1 mixture of EMEM and F12 media, supplemented with 10% FBS plus 1% antibiotics and antimycotics.
HCQ treatment: Treatment with hydroxychloroquine Sulfate (Selleckchem, Catalog No.S4430) was performed at 50 μM concentration.
Western blot analysis: Protein extracts were obtained by lysing cells with a denaturing buffer containing 2% sodium dodecyl sulfate (SDS) (Sigma-Aldrich) in 50 mM HEPES. After boiling and sonication, whole-cell protein extracts were size-fractionated through polyacrylamide gels and transferred to nitrocellulose membranes (Bio-Rad). Membranes were blocked with 5% non-fat dry milk and immunoblotted. Primary antibodies were employed that recognized total STAT3 (124H6) (Cell Signaling, 9139T), phosphorylated STAT3 (Tyr705) (D3A7) XP® (Cell Signaling, 9145S), and phosphorylated STAT3 (Ser727) (Cell Signaling, 94994S).
Statistical analysis: Digitized images were obtained, processed, and quantified with ImageLab version 6.1 (BioRad Laboratories).

[3] = system: Primary hippocampal neurons; test: Aβ toxicity assay; assay type: cell-based, mouse; conditions: HCQ 25, 2.5 or 0.25 μM
Description: Aβ toxicity: Primary hippocampal neurons were prepared from E18.5 timed pregnant C57BL/6JRccHsd mice as previously described. Cells were seeded in poly-D-lysine pre-coated 96-well plates at a density of 4×10^4 cells/well and cultivated until DIV10 (Neurobasal, 2% B-27, 0.5 mM glutamine, 25 μM glutamate, 1% Penicillin-Streptomycin). On DIV10 pre-aggregated Aβ1-42 (Bachem 4061966, final concentration 10 μM, 48 h at 4° C.) was added to the cells in the presence or absence of Hydroxychloroquine sulfate (TargetMol, T0951) at 25 μM, 2.5 μM or 0.25 μM concentrations. On DIV16 cells were subject to MTT assay to determine cell viability.

[4] = system: microglia isolated from 5xFAD mice; test: LPS-induced neuroinflammation on MACS isolated 5xFAD microglia; assay type: cell-based, mouse
Description: MACS microglia isolation and cultivation: Adult microglia were isolated from 9 months old 5xFAD mice via magnetic cell sorting (MACS). The mice were terminally anesthetized by i.p. injection of Pentobarbital (600 mg/kg, dosing 10 μL/g body weight) and brains were transcardially perfused with DPBS. Brains were removed, the brainstem discarded and the remaining brain minced for cell dissociation. Cell dissociation was performed using Miltenyi Adult Brain Dissociation Kit (Miltenyi, 130-107-677). MACS cell separation was performed using CD11b (Microglia) MicroBeads, mouse (Miltenyi, 130-093-634) and MS columns on OctoMACS™ cell separator (Miltenyi). Isolated microglia were seeded onto 0.01% PLL coated plates at a density of 10.000 cells per well in 384 well plate in DMEM containing 10% FBS,1% penicillin/streptomycin, and 2 mM L-glutamine.
LPS-induced neuroinflammation on MACS isolated 5xFAD microglia: On DIV7 HCQ at 0.25 μM, 2.5 μM and 25 μM was applied 1 hour before LPS stimulation (Sigma-Aldrich; L6529; 1 mg/ml stock in ddH2O, final concentration in well: 50 ng/ml (dilutions in medium)). Cells treated with vehicle, cells treated with LPS alone, as well as cells treated with LPS plus reference item (dexamethasone 10 μM, Sigma D4902) served as controls. After 24 h of stimulation, cell supernatants were collected for the cytokine measurement (V-PLEX Proinflammatory Panel 1 Mouse Kit, K15048D, Mesoscale).

[5] = system: iPSCs; test: LPS induced neuroinflammation (iPSCs); assay type: cell-based; conditions: posterior probability of a protective effect
Description: Cell-based assays: For each combination of drugs and assay, the posterior probability P(Hi|data) of protective, neutral, and adverse drug effect (formal hypotheses H1, H0, H2, respectively) were evaluated. Dose-response relationships (x-y data) were modeled with a Bayesian nonlinear regression model:
and Bayesian estimation of the posterior density of the fold change was performed using default settings of the Markov chain Monte Carlo samples implemented by the PyMC python library. For efficient sample, each bioactivity data set was standardized such that […] corresponded to one standard deviation. Diagnostic criteria (posterior sample of fitted curves, effective sample sizes, values of the r statistic, and Markov chain standard errors) were inspected for the fit and three poorly fitted data sets out of a total of 91 data sets were excluded.

Row | hippocampal p-STAT3 (Tyr705) ([1]; APP/PS1+50 μM HCQ vs untreated APP/PS1) | hippocampal total STAT3 ([1]; APP/PS1 vs APP/PS1+50 μM HCQ) | hippocampal total STAT3 and p-STAT3 (Tyr705) ([1]; WT vs WT+50 μM HCQ) | p-STAT3 (Tyr705 and Ser727) ([2]; 1321N1 cells) | total STAT3 ([2]; 1321N1 cells) | p-STAT3 (Tyr705 and Ser727) ([2]; HMC3 cells) | total STAT3 ([2]; HMC3 cells) | phosphorylated STAT3 and total STAT3 ([2]; SK-N-BE(2)-M17 cells) | SMILES | cell viability [2] | toxicity due to exogenous Aβ [3] | release of IL1-b [4] | release of IL-10 [4] | release of IL-12p70 [4] | release of IL6 ([4]; HCQ 0.25-25 μM) | effect in LPS induced neuroinflammation (iPSCs) [5]
1 | significantly lower | no significant difference | similar | reduced | without alteration | reduced | without alteration | non-significant | CCN(CCO)CCCC(C)Nc1ccnc2cc(Cl)ccc12 (stereo not drawn) [HCQ, hydroxychloroquine] | did not have adverse effects on cell viability | no effects | lowered | lowered | lowered | lowered | 
2 |  |  |  |  |  |  |  |  | C[C@H](CCC(=O)NCCS(=O)(=O)O)[C@H]1CC[C@H]2[C@@H]3[C@@H](O)C[C@@H]4C[C@H](O)CC[C@]4(C)[C@H]3CC[C@]12C [TUDCA, tauroursodeoxycholic acid] |  |  |  |  |  |  | strongly protective
